The values that follow come from patent US20060024239A1, “Persistent post-viral cough drug and treatment method” (priority 2004, published 2006).

The subject of the assay is persistent post-viral cough. Description: Treatment of patients with persistent post-viral cough (case reports and the inventors' clinical experience). Type of assay: in vivo, human. The source says:
As opposed to what is found in the medical literature, in the usual patient that we have observed and treated for sub-acute or chronic cough after viral respiratory infection, evidence for post-nasal drip, sinusitis, asthma, or gastroesophageal reflux has been lacking. Physical examination of the nose, throat, sinuses, and chest has been unremarkable as have chest x-ray, and simple pulmonary function tests. Antihistamines and decongestants as might be used for post-nasal drip have proven disappointing and have rarely afforded relief of the persistent cough when tried. Antibiotic treatments likewise have been effective to alleviate cough only in rare instances. […] We have been surprised by the regularity with which this treatment has proven effective.
Because the respiratory tract is a continuous conduit, topical medications can be applied to the airways surface in aerosol form. The term “aerosol” as used herein is as conventionally defined to indicate either a liquid or solid particle suspended in gas. Many chemical entities in aerosol delivery devices, both liquid and solid, have been developed and marketed for treating respiratory disorders. These include aerosol medications for application to the nose or for inhalation through the mouth. We have utilized a variety of inhaled topical corticosteroid aerosols to treat persistent post-viral cough and have found them all to be generally effective. The following are two examples of aerosols and regimens that we have found effective: • Beclovent Inhalation Aerosol (beclomethasone diprroprionate, USP): two to three sprays t.i.d. for six days. • Pulmicort Turbuhaler® 200 mcg (budesonide powder): one spray t.i.d. for six days.
The inventors have improvised treatment for protracted post-viral cough in our patients by utilizing commercially available multi-dose corticosteroid aerosol inhalers that are not indicated for that purpose. These typically provide enough chemical agent for a 29-30 day period. They are neither labeled for short-term use or for treatment of post-viral cough. While we have not encountered medicinal side effects in our treated patients, a general principal of pharmacologic treatment is to avoid overuse of medication. The desirability to minimize treatment and minimize the use of corticosteroids in particular is well recognized. On occasion, the inventors have utilized smaller size inhaler samples with fewer dosing actuations that have been available through the courtesy of pharmaceutical representatives. Although less consistently available, the devices with lesser number of actuations are considered preferable to prevent inadvertent or purposeful overuse of medication. An aerosol device containing a corticosteroid agent for treatment of about two weeks or less is preferred, and about 7 days is most preferred. It is to be noted that, lacking labeling, no inhaled corticosteroid aerosol used experimentally by the inventors comprises a “drug” to treat the persistent post-viral cough patients as herein described.
The following case reports further exemplify the present invention: • 1. A person with no previous respiratory history had initial symptoms consisting of nasal congestion, rhinorrhea, post-nasal drip, and dry cough. All symptoms but cough resolved within two week and dry cough persisted for 28 days from onset.
We have likewise found prompt response to a short course treatment of inhaled corticosteroid in these individuals, for example: […]

Turning to `C[C@H]1C[C@H]2[C@@H]3CCC4=CC(=O)C=C[C@]4(C)[C@@]3(Cl)[C@@H](O)C[C@]2(C)[C@@]1(O)C(=O)CO` [Beclomethasone MDI, Beclomethasone], for the setting “case 1: 2 sprays (40 mcg@) tid for six days, after one week”, the “subsequent resolution of cough” value is “complete resolution”. Moreover, the recurrence of cough entry (case 1: 2 sprays (40 mcg@) tid for six days, no further medication required) is reported as “did not reoccur”; the recurrence of cough entry (case 2: 2 sprays (40 mcg@) tid for five days) is “no recurrence of cough”; the recurrence of cough result (case 3: 2 sprays (40 mcg@) tid for five days) is listed as “no recurrence”; the recurrence of cough result (case 4: 2 sprays (40 mcg@) tid for ten days) is “did not reoccur”. In addition, the “improvement of cough at one week” value (case 1: dry cough for 28 days, 2 sprays (40 mcg@) tid for six days, slight residual in AM) is “significant improvement of cough”. In addition, the resolution of cough entry (case 2: cough for 25 days, 2 sprays (40 mcg@) tid for five days) was “complete resolution of cough”; the resolution of cough result (case 3: severe dry cough for 22 days, 2 sprays (40 mcg@) tid for five days) is “complete resolution of cough”; the resolution of cough entry (case 4: severe dry cough for 6 weeks, 2 sprays (40 mcg@) tid for ten days) is recorded as “complete resolution of cough”.

Turning to `CC[C@H]1OC(=O)[C@H](C)[C@@H](O[C@H]2C[C@@](C)(OC)[C@@H](O)[C@H](C)O2)[C@H](C)[C@@H](O[C@@H]2O[C@H](C)C[C@H](N(C)C)[C@H]2O)[C@](C)(O)C[C@@H](C)CN(C)[C@H](C)[C@@H](O)[C@]1(C)O` [azithromycin], the resolution of symptoms entry (case 2: five-day course, 500 mg per day, initial cold symptoms with productive cough) was “all symptoms resolved with the exception of a non-productive “tickling” cough”. Besides, where the note is “case 4: 500 mg per day for five days”, the improvement of cough result is on record as “without improvement of the cough”.
